Source: BindingDB's records for doi:10.1021/jm010999g (2002)

Assays:
[1] = molecular target: T1, ATP-binding cassette sub-family C member 9 (Rattus norvegicus, UniProt Q63563); test: Binding affinity to the sulfonylurea receptor 2A (SUR2A) in purified membranes of rat-heart myocytes
[2] = molecular target: T1, ATP-binding cassette sub-family C member 9; test: Binding affinity towards Sulfonylurea receptor 2B (SUR2B) in cultured rat aortic smooth muscle cells (SMC)

T1 sequence (Q63563 whole entry): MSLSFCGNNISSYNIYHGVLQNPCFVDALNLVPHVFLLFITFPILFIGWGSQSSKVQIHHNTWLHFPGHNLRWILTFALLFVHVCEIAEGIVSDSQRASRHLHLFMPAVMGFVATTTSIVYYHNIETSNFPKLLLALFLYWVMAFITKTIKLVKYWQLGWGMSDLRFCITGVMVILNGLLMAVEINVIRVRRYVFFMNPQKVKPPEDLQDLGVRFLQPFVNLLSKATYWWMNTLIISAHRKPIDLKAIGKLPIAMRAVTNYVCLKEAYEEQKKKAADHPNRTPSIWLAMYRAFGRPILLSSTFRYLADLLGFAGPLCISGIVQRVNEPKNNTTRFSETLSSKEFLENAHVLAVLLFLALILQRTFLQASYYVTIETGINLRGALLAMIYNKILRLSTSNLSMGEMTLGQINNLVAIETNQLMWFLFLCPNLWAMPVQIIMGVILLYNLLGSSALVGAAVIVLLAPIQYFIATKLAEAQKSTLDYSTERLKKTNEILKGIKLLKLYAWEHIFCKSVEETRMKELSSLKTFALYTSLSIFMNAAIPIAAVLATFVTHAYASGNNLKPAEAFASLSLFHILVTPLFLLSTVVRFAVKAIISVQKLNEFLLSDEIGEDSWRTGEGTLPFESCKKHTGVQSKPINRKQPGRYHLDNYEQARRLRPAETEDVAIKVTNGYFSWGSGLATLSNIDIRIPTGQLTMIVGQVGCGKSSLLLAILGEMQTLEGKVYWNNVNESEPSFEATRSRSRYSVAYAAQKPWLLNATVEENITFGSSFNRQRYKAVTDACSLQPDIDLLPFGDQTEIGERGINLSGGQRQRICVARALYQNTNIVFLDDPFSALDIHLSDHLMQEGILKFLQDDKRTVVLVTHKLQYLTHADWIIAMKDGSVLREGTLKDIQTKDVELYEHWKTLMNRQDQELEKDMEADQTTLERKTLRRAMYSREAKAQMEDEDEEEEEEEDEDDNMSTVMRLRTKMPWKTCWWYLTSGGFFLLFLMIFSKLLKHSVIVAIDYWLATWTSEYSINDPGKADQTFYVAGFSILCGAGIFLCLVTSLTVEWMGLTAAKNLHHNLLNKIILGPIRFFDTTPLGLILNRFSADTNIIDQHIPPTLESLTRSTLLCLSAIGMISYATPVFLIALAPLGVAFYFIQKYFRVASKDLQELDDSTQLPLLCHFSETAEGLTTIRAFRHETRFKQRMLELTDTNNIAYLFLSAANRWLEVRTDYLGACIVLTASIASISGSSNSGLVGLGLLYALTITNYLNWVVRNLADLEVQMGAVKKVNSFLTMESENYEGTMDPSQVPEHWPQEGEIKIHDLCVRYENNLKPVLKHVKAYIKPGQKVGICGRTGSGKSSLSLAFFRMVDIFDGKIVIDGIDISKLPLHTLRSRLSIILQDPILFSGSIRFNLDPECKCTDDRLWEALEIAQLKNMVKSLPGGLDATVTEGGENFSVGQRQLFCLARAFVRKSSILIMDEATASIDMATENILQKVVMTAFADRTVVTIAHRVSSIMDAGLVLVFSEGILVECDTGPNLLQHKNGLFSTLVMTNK

Row | Structure (SMILES) | Kd [1] | Kd [2]
1 | CCNS(=O)(=O)c1ccc2c(c1)C(n1ccccc1=O)=CC(C)(C)O2 | 200 nM | 100 nM
2 | CC(C)NS(=O)(=O)c1ccc2c(c1)C(n1ccccc1=O)=CC(C)(C)O2 | 6610 nM | 8320 nM
3 | CC1(C)C=C(n2ccccc2=O)c2cc(S(=O)(=O)NCCO)ccc2O1 | 692 nM | 457 nM
4 | CCN(CC)S(=O)(=O)c1ccc2c(c1)C(n1ccccc1=O)=CC(C)(C)O2 | 355 nM | 115 nM
5 | CC1(C)C=C(n2ccccc2=O)c2cc(S(=O)(=O)NC3CCCC3)ccc2O1 | 1410 nM | 537 nM
6 | CC1(C)C=C(n2ccccc2=O)c2cc(S(=O)(=O)NC(=O)NC3CCCCC3)ccc2O1 | 5620 nM | 
7 | CC1(C)C=C(n2ccccc2=O)c2cc(S(=O)(=O)NCc3ccccc3)ccc2O1 | 5250 nM | 1000 nM
8 | CC1(C)C=C(n2ccccc2=O)c2cc(S(N)(=O)=O)ccc2O1 | 316 nM | 115 nM
9 | CC1(C)C=C(n2ccccc2=O)c2cc(S(=O)(=O)N3CCOCC3)ccc2O1 | 363 nM | 186 nM
10 | COc1ccc(NS(=O)(=O)c2ccc3c(c2)C(n2ccccc2=O)=CC(C)(C)O3)cc1 | 537 nM | 245 nM
11 | CC1(C)C=C(n2ccccc2=O)c2cc(S(=O)(=O)NC(=O)Nc3ccccc3)ccc2O1 | 2820 nM | 
12 | CC1(C)C=C(n2ccccc2=O)c2cc(S(=O)(=O)F)ccc2O1 | 15 nM | 9.8 nM
13 | CC1(C)C=C(n2ccccc2=O)c2cc(S(=O)(=O)Nc3ccc([N+](=O)[O-])cc3)ccc2O1 | 4470 nM | 1590 nM
14 | CC1(C)C=C(n2ccccc2=O)c2cc(S(=O)(=O)Nc3ccc(Br)cc3)ccc2O1 | 1700 nM | 224 nM
15 | CC1(C)C=C(n2ccccc2=O)c2cc(S(=O)(=O)Nc3ccc(C#N)cc3)ccc2O1 | 3160 nM | 759 nM

Now from value to molecule:

Row | Kd [1] | Kd [2] | Structure (SMILES)
16 | 23 nM | 11 nM | CC1(C)C=C(n2ccccc2=O)c2cc(S(=O)(=O)Nc3ccccc3F)ccc2O1
17 | 17 nM | 2.8 nM | CC1(C)C=C(n2ccccc2=O)c2cc(S(=O)(=O)Oc3ccccc3)ccc2O1
18 | 15 nM |  | CC1(C)C=C(n2ccccc2=O)c2cc(S(=O)(=O)N=[N+]=[N-])ccc2O1
19 | 56 nM | 10 nM | CC1(C)C=C(n2ccccc2=O)c2cc(C#N)ccc2O1 [Bimakalim]
20 | 138 nM | 23 nM | CC1(C)C=C(n2ccccc2=O)c2cc(S(=O)(=O)Nc3ccccc3Br)ccc2O1
21 | 15 nM | 8.9 nM | CC1(C)C=C(n2ccccc2=O)c2cc(S(=O)(=O)Nc3ccccc3)ccc2O1
22 | 123 nM | 63 nM | CN(C)S(=O)(=O)c1ccc2c(c1)C(n1ccccc1=O)=CC(C)(C)O2
23 | 27 nM | 7.1 nM | CC1(C)Oc2ccc(S(=O)(=O)c3ccccc3)cc2[C@@H](N2CCCC2=O)[C@@H]1O [Rilmakalim]
24 | 20 nM | 13 nM | CN(c1ccccc1)S(=O)(=O)c1ccc2c(c1)C(n1ccccc1=O)=CC(C)(C)O2
25 | 19 nM | 7.4 nM | [2H]c1c([2H])c([2H])c(NS(=O)(=O)c2ccc3c(c2)C(n2ccccc2=O)=CC(C)(C)O3)c([2H])c1[2H]
26 | 138 nM | 65 nM | CC1(C)C=C(n2ccccc2=O)c2cc(S(=O)(=O)c3ccccc3)ccc2O1
27 | 66 nM | 55 nM | CNS(=O)(=O)c1ccc2c(c1)C(n1ccccc1=O)=CC(C)(C)O2
